Assay results from PubChem BioAssay (NCI).
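Values below derive from 48-hour exposures of cells grown in 96-well plates, with endpoints linearly interpolated between the two concentrations bracketing the appropriate inhibition level. The concentration for 50% growth inhibition is given as GI50. Definition used: TGI = concentration required for complete inhibition of growth.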

What was measured:
Assay in all cases: DTP human tumour cell line panel, 48 h
786-0 renal = system: 786-0 renal
A498 renal = system: A498 renal
A549 NSCLC = system: A549 NSCLC
ACHN renal = system: ACHN renal
BT-549 breast = system: BT-549 breast
CAKI-1 renal = system: CAKI-1 renal
CCRF-CEM leukemia = system: CCRF-CEM leukemia
COLO 205 colon = system: COLO 205 colon
DU-145 prostate = system: DU-145 prostate
EKVX NSCLC = system: EKVX NSCLC
HCC-2998 colon = system: HCC-2998 colon
HCT-116 colon = system: HCT-116 colon
HCT-15 colon = system: HCT-15 colon
HL-60(TB) leukemia = system: HL-60(TB) leukemia
HOP-62 NSCLC = system: HOP-62 NSCLC
HOP-92 NSCLC = system: HOP-92 NSCLC
HS 578T breast = system: HS 578T breast
HT29 colon = system: HT29 colon
IGROV1 ovarian = system: IGROV1 ovarian
K-562 leukemia = system: K-562 leukemia
KM12 colon = system: KM12 colon
LOX IMVI melanoma = system: LOX IMVI melanoma
M14 melanoma = system: M14 melanoma
MALME-3M melanoma = system: MALME-3M melanoma
MCF7 breast = system: MCF7 breast
MDA-MB-231 breast = system: MDA-MB-231 breast
MDA-MB-435 = system: MDA-MB-435
MOLT-4 leukemia = system: MOLT-4 leukemia
NCI-H226 lung = system: NCI-H226 lung
NCI-H23 lung = system: NCI-H23 lung
NCI-H460 lung = system: NCI-H460 lung
NCI-H522 lung = system: NCI-H522 lung
NCI/ADR-RES ovarian = system: NCI/ADR-RES ovarian
OVCAR-3 ovarian = system: OVCAR-3 ovarian
OVCAR-4 ovarian = system: OVCAR-4 ovarian
OVCAR-5 ovarian = system: OVCAR-5 ovarian
OVCAR-8 ovarian = system: OVCAR-8 ovarian
PC-3 prostate = system: PC-3 prostate
RPMI-8226 leukemia = system: RPMI-8226 leukemia
RXF 393 renal = system: RXF 393 renal
SF-268 CNS = system: SF-268 CNS
SF-295 CNS = system: SF-295 CNS
SF-539 CNS = system: SF-539 CNS
SK-MEL-2 melanoma = system: SK-MEL-2 melanoma
SK-MEL-28 melanoma = system: SK-MEL-28 melanoma
SK-MEL-5 melanoma = system: SK-MEL-5 melanoma
SK-OV-3 ovarian = system: SK-OV-3 ovarian
SN12C renal = system: SN12C renal
SNB-19 CNS = system: SNB-19 CNS
SNB-75 CNS = system: SNB-75 CNS
SR leukemia = system: SR leukemia
SW-620 colon = system: SW-620 colon
T-47D breast = system: T-47D breast
TK-10 renal = system: TK-10 renal
U251 CNS = system: U251 CNS
UACC-257 melanoma = system: UACC-257 melanoma
UACC-62 melanoma = system: UACC-62 melanoma
UO-31 renal = system: UO-31 renal

SMILES: CN(C)CCN1CCC(Cc2ccccc2)CC1
- GI50 (786-0 renal): > 80 µM
- TGI (786-0 renal): > 80 µM
- GI50 (A498 renal): 47.2 µM
- TGI (A498 renal): > 80 µM
- GI50 (A549 NSCLC): > 80 µM
- TGI (A549 NSCLC): > 80 µM
- GI50 (ACHN renal): > 80 µM
- TGI (ACHN renal): > 80 µM
- GI50 (BT-549 breast): > 80 µM
- TGI (BT-549 breast): > 80 µM
- GI50 (CAKI-1 renal): > 80 µM
- TGI (CAKI-1 renal): > 80 µM
- GI50 (CCRF-CEM leukemia): > 80 µM
- TGI (CCRF-CEM leukemia): > 80 µM
- GI50 (COLO 205 colon): > 80 µM
- TGI (COLO 205 colon): > 80 µM
- GI50 (DU-145 prostate): > 80 µM
- TGI (DU-145 prostate): > 80 µM
- GI50 (EKVX NSCLC): > 80 µM
- TGI (EKVX NSCLC): > 80 µM
- GI50 (HCC-2998 colon): > 80 µM
- TGI (HCC-2998 colon): > 80 µM
- GI50 (HCT-116 colon): > 80 µM
- TGI (HCT-116 colon): > 80 µM
- GI50 (HCT-15 colon): > 80 µM
- TGI (HCT-15 colon): > 80 µM
- GI50 (HL-60(TB) leukemia): 26.8 µM
- TGI (HL-60(TB) leukemia): > 80 µM
- GI50 (HOP-62 NSCLC): > 80 µM
- TGI (HOP-62 NSCLC): > 80 µM
- GI50 (HOP-92 NSCLC): 41.4 µM
- TGI (HOP-92 NSCLC): > 80 µM
- GI50 (HS 578T breast): 44.1 µM
- TGI (HS 578T breast): > 80 µM
- GI50 (HT29 colon): > 80 µM
- TGI (HT29 colon): > 80 µM
- GI50 (IGROV1 ovarian): > 80 µM
- TGI (IGROV1 ovarian): > 80 µM
- GI50 (K-562 leukemia): 15.4 µM
- TGI (K-562 leukemia): > 80 µM
- GI50 (KM12 colon): > 80 µM
- TGI (KM12 colon): > 80 µM
- GI50 (LOX IMVI melanoma): > 80 µM
- TGI (LOX IMVI melanoma): > 80 µM
- GI50 (M14 melanoma): > 80 µM
- TGI (M14 melanoma): > 80 µM
- GI50 (MALME-3M melanoma): > 80 µM
- TGI (MALME-3M melanoma): > 80 µM
- GI50 (MCF7 breast): > 80 µM
- TGI (MCF7 breast): > 80 µM
- GI50 (MDA-MB-231 breast): > 80 µM
- TGI (MDA-MB-231 breast): > 80 µM
- GI50 (MDA-MB-435): > 80 µM
- TGI (MDA-MB-435): > 80 µM
- GI50 (MOLT-4 leukemia): > 80 µM
- TGI (MOLT-4 leukemia): > 80 µM
- GI50 (NCI-H226 lung): > 80 µM
- TGI (NCI-H226 lung): > 80 µM
- GI50 (NCI-H23 lung): > 80 µM
- TGI (NCI-H23 lung): > 80 µM
- GI50 (NCI-H460 lung): > 80 µM
- TGI (NCI-H460 lung): > 80 µM
- GI50 (NCI-H522 lung): > 80 µM
- TGI (NCI-H522 lung): > 80 µM
- GI50 (NCI/ADR-RES ovarian): > 80 µM
- TGI (NCI/ADR-RES ovarian): > 80 µM
- GI50 (OVCAR-3 ovarian): > 80 µM
- TGI (OVCAR-3 ovarian): > 80 µM
- GI50 (OVCAR-4 ovarian): > 80 µM
- TGI (OVCAR-4 ovarian): > 80 µM
- GI50 (OVCAR-5 ovarian): > 80 µM
- TGI (OVCAR-5 ovarian): > 80 µM
- GI50 (OVCAR-8 ovarian): > 80 µM
- TGI (OVCAR-8 ovarian): > 80 µM
- GI50 (PC-3 prostate): > 80 µM
- TGI (PC-3 prostate): > 80 µM
- GI50 (RPMI-8226 leukemia): > 80 µM
- TGI (RPMI-8226 leukemia): > 80 µM
- GI50 (RXF 393 renal): > 80 µM
- TGI (RXF 393 renal): > 80 µM
- GI50 (SF-268 CNS): > 80 µM
- TGI (SF-268 CNS): > 80 µM
- GI50 (SF-295 CNS): > 80 µM
- TGI (SF-295 CNS): > 80 µM
- GI50 (SF-539 CNS): > 80 µM
- TGI (SF-539 CNS): > 80 µM
- GI50 (SK-MEL-2 melanoma): > 80 µM
- TGI (SK-MEL-2 melanoma): > 80 µM
- GI50 (SK-MEL-28 melanoma): > 80 µM
- TGI (SK-MEL-28 melanoma): > 80 µM
- GI50 (SK-MEL-5 melanoma): 43.2 µM
- TGI (SK-MEL-5 melanoma): > 80 µM
- GI50 (SK-OV-3 ovarian): > 80 µM
- TGI (SK-OV-3 ovarian): > 80 µM
- GI50 (SN12C renal): > 80 µM
- TGI (SN12C renal): > 80 µM
- GI50 (SNB-19 CNS): > 80 µM
- TGI (SNB-19 CNS): > 80 µM
- GI50 (SNB-75 CNS): > 80 µM
- TGI (SNB-75 CNS): > 80 µM
- GI50 (SR leukemia): 67.3 µM
- TGI (SR leukemia): > 80 µM
- GI50 (SW-620 colon): > 80 µM
- TGI (SW-620 colon): > 80 µM
- GI50 (T-47D breast): > 80 µM
- TGI (T-47D breast): > 80 µM
- GI50 (TK-10 renal): > 80 µM
- TGI (TK-10 renal): > 80 µM
- GI50 (U251 CNS): > 80 µM
- TGI (U251 CNS): > 80 µM
- GI50 (UACC-257 melanoma): > 80 µM
- TGI (UACC-257 melanoma): > 80 µM
- GI50 (UACC-62 melanoma): > 80 µM
- TGI (UACC-62 melanoma): > 80 µM
- GI50 (UO-31 renal): > 80 µM
- TGI (UO-31 renal): > 80 µM
